{"source": "patent US9447074B2", "about": "“Compounds” (Glaxo Group Limited, priority 2011, dated 2016)", "origin": "cited, not measured here", "key": {"allergic rhinitis [1]": {"tested_on": "allergic rhinitis", "settings": "dosed intranasally, phase I/II"}, "allergic rhinitis [2]": {"tested_on": "allergic rhinitis", "settings": "phase II"}, "[3]": {"tested_on": "B-Cell non-Hodgkin's lymphoma (NHL)"}, "B lymphoma (BKS-2)": {"tested_on": "B lymphoma (BKS-2)", "settings": "murine model of B lymphoma (BKS-2)"}}}
{"smiles": "Oc1cccc(Nc2ncc(F)c(Nc3cccc(O)c3)n2)c1", "note": "[Example R112]", "values": [{"measurement": "PGD2", "setting": "allergic rhinitis [1]", "value": "statistically significant decrease"}, {"measurement": "clinical safety", "setting": "allergic rhinitis [1]", "value": "safe across a range of indicators"}, {"measurement": "efficacy versus placebo", "setting": "allergic rhinitis [2]", "value": "lack of efficacy versus placebo"}]}
{"smiles": "COc1cc(Nc2ncc(F)c(Nc3ccc4c(n3)N(COP(=O)(O)O)C(=O)C(C)(C)O4)n2)cc(OC)c1OC", "note": "[Example R788, fostamatinib disodium]", "values": [{"measurement": "therapeutic benefit", "setting": "[3]; patients with DLBCL and CLL/SLL", "value": "therapeutic benefit"}, {"measurement": "tolerability", "setting": "[3]; patients with relapsed or refractory B-Cell NHL", "value": "well-tolerated"}]}
{"smiles": "COc1cc(/C=C/C(=O)CC(=O)/C=C/c2ccc(O)c(OC)c2)ccc1O", "note": "[curcumin]", "values": [{"measurement": "tumour burden as measured by the total splenocyte number", "setting": "B lymphoma (BKS-2)", "value": "significant reduction of tumour burden"}]}
